Results: patent US20260125382A1, “COMPOUNDS FOR INHIBITING OR DEGRADING CDK2 AND/OR CDK9 AND MEDICINAL USE THEREOF” (KOREA RESEARCH INSTITUTE OF CHEMICAL TECHNOLOGY, priority 2022, published 2026)

Tests used:
CDK2 = target: T1, CDK2 (Homo sapiens, UniProt P24941); experiment: CDK protein degradation activity (Western blotting), CDK2; type: cell-based; conditions: MDA-MB-231 cells, 16 hours, Western blot
T1 construct: endogenous in cells; host or cells: MDA-MB-231
Method in brief: (§1)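 Degradation is judged from CDK2 and CDK9 band intensity relative to tubulin and DMSO-treated cells, after 16 h exposure of MDA-MB-231 cells to three compound concentrations (100 nM, 1 μM, 10 μM).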

CDK9 = target: T2, CDK9 (Homo sapiens, UniProt P50750); experiment: CDK protein degradation activity (Western blotting), CDK9; type: cell-based; conditions: MDA-MB-231 cells, 16 hours, Western blot
T2 construct: endogenous in cells; host or cells: MDA-MB-231
Method in brief: as §1

T2 sequence (P50750 whole entry): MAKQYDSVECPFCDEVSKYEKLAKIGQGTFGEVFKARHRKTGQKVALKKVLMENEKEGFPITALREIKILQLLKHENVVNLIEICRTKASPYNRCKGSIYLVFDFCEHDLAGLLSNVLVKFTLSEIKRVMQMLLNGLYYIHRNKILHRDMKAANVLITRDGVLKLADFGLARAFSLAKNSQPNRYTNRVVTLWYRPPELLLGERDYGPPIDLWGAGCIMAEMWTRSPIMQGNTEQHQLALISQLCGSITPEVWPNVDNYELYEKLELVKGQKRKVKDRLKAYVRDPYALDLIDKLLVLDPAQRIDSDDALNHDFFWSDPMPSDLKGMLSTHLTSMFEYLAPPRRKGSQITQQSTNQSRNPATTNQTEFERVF

O=C1CC[C@H](N2C(=O)c3cccc(NCC(=O)N4CCC5(CC(N6CCN(c7ccc(Nc8ncnc9c8ncn9C8CC(NC(=O)Cc9ccccc9)C8)cc7)CC6)C5)C4)c3C2=O)C(=O)N1 (stereo partly drawn) [Compound 263, N-((1s,3s)-3-(6-((4-(4-(6-((2-(2,6-dioxopiperidin-3-yl)-1,3-dioxoisoindolin-4-yl)glycyl)-6-azaspiro[3.4]octan-2-yl)piperazin-1-yl)phenyl)amino)-9H-purin-9-yl)cyclobutyl)-2-phenylacetamide]
Enzyme degradation CDK2 (% remaining) @ 0.1 μM (CDK2): 50%
Enzyme degradation CDK2 (% remaining) @ 1 μM (CDK2): 40%
Enzyme degradation CDK2 (% remaining) @ 10 μM (CDK2): 40%
Enzyme degradation CDK9 (% remaining) @ 0.1 μM (CDK9): 20%
Enzyme degradation CDK9 (% remaining) @ 1 μM (CDK9): 0%
Enzyme degradation CDK9 (% remaining) @ 10 μM (CDK9): 0%

O=C1CC[C@H](N2C(=O)c3cccc(OCC(=O)N4CCC5(CC(N6CCN(c7ccc(Nc8ncnc9c8ncn9[C@H]8C[C@@H](NC(=O)Cc9ccccc9)C8)cc7)CC6)C5)C4)c3C2=O)C(=O)N1 (stereo partly drawn) [Compound 264, N-((1s,3s)-3-(6-((4-(4-(6-(2-((2-(2,6-dioxopiperidin-3-yl)-1,3-dioxoisoindolin-4-yl)oxy)acetyl)-6-azaspiro[3.4]octan-2-yl)piperazin-1-yl)phenyl)amino)-9H-purin-9-yl)cyclobutyl)-2-phenylacetamide]
Enzyme degradation CDK2 (% remaining) @ 0.1 μM (CDK2): 50%
Enzyme degradation CDK2 (% remaining) @ 1 μM (CDK2): 20%
Enzyme degradation CDK2 (% remaining) @ 10 μM (CDK2): 10%
Enzyme degradation CDK9 (% remaining) @ 0.1 μM (CDK9): 90%
Enzyme degradation CDK9 (% remaining) @ 1 μM (CDK9): 40%
Enzyme degradation CDK9 (% remaining) @ 10 μM (CDK9): 0%

O=C1CC[C@H](N2C(=O)c3ccc(NCC(=O)N4CCC5(CC(N6CCN(c7ccc(Nc8ncnc9c8ncn9[C@H]8C[C@@H](NC(=O)Cc9ccccc9)C8)cc7)CC6)C5)C4)cc3C2=O)C(=O)N1 (stereo partly drawn) [Compound 265, N-((1s,3s)-3-(6-((4-(4-(6-((2-(2,6-dioxopiperidin-3-yl)-1,3-dioxoisoindolin-5-yl)glycyl)-6-azaspiro[3.4]octan-2-yl)piperazin-1-yl)phenyl)amino)-9H-purin-9-yl)cyclobutyl)-2-phenylacetamide]
Enzyme degradation CDK2 (% remaining) @ 0.1 μM (CDK2): 90%
Enzyme degradation CDK2 (% remaining) @ 1 μM (CDK2): 70%
Enzyme degradation CDK2 (% remaining) @ 10 μM (CDK2): 70%
Enzyme degradation CDK9 (% remaining) @ 0.1 μM (CDK9): 10%
Enzyme degradation CDK9 (% remaining) @ 1 μM (CDK9): 0%
Enzyme degradation CDK9 (% remaining) @ 10 μM (CDK9): 0%

O=C1CC[C@@H](c2ccc(OCC(=O)N3CCC4(CC(N5CCN(c6ccc(Nc7ncnc8c7ncn8C7CC(NC(=O)Cc8ccccc8)C7)cc6)CC5)C4)C3)cc2)C(=O)N1 (stereo partly drawn) [Compound 268, N-((1s,3s)-3-(6-((4-(4-(6-(2-(4-(2,6-dioxopiperidin-3-yl)phenoxy)acetyl)-6-azaspiro[3.4]octan-2-yl)piperazin-1-yl)phenyl)amino)-9H-purin-9-yl)cyclobutyl)-2-phenylacetamide]
Enzyme degradation CDK2 (% remaining) @ 0.1 μM (CDK2): 70%
Enzyme degradation CDK2 (% remaining) @ 1 μM (CDK2): 50%
Enzyme degradation CDK2 (% remaining) @ 10 μM (CDK2): 20%
Enzyme degradation CDK9 (% remaining) @ 0.1 μM (CDK9): 70%
Enzyme degradation CDK9 (% remaining) @ 1 μM (CDK9): 0%
Enzyme degradation CDK9 (% remaining) @ 10 μM (CDK9): 0%

O=C1CCC(c2cccc(OCC(=O)N3CCC4(CC(N5CCN(c6ccc(Nc7ncnc8c7ncn8[C@H]7C[C@@H](NC(=O)Cc8ccccc8)C7)cc6)CC5)C4)C3)c2)C(=O)N1 (stereo partly drawn) [Compound 269, N-((1s,3s)-3-(6-((4-(4-(6-(2-(3-(2,6-dioxopiperidin-3-yl)phenoxy)acetyl)-6-azaspiro[3.4]octan-2-yl)piperazin-1-yl)phenyl)amino)-9H-purin-9-yl)cyclobutyl)-2-phenylacetamide]
Enzyme degradation CDK2 (% remaining) @ 0.1 μM (CDK2): 10/10/10%
Enzyme degradation CDK2 (% remaining) @ 1 μM (CDK2): 10/10/10%
Enzyme degradation CDK2 (% remaining) @ 10 μM (CDK2): 10/10/10%
Enzyme degradation CDK9 (% remaining) @ 0.1 μM (CDK9): 30%
Enzyme degradation CDK9 (% remaining) @ 1 μM (CDK9): 10%
Enzyme degradation CDK9 (% remaining) @ 10 μM (CDK9): 10%

O=C1CC[C@H](N2C(=O)c3cccc(N4CC(N5CCC6(CC5)CC(N5CCN(c7ccc(Nc8ncnc9c8ncn9[C@H]8C[C@@H](NC(=O)Cc9ccccc9)C8)cc7)CC5)C6)C4)c3C2=O)C(=O)N1 [Compound 270, N-((1s,3s)-3-(6-((4-(4-(7-(1-(2-(2,6-dioxopiperidin-3-yl)-1,3-dioxoisoindolin-4-yl)azetidin-3-yl)-7-azaspiro[3.5]nonan-2-yl)piperazin-1-yl)phenyl)amino)-9H-purin-9-yl)cyclobutyl)-2-phenylacetamide]
Enzyme degradation CDK2 (% remaining) @ 0.1 μM (CDK2): 40%
Enzyme degradation CDK2 (% remaining) @ 1 μM (CDK2): 30%
Enzyme degradation CDK2 (% remaining) @ 10 μM (CDK2): 30%
Enzyme degradation CDK9 (% remaining) @ 0.1 μM (CDK9): 40%
Enzyme degradation CDK9 (% remaining) @ 1 μM (CDK9): 30%
Enzyme degradation CDK9 (% remaining) @ 10 μM (CDK9): 30%

O=C1CC[C@H](N2C(=O)c3ccc(N4CC(N5CCC6(CC5)CC(N5CCN(c7ccc(Nc8ncnc9c8ncn9C8CC(NC(=O)Cc9ccccc9)C8)cc7)CC5)C6)C4)cc3C2=O)C(=O)N1 (stereo partly drawn) [Compound 271, N-((1s,3s)-3-(6-((4-(4-(7-(1-(2-(2,6-dioxopiperidin-3-yl)-1,3-dioxoisoindolin-5-yl)azetidin-3-yl)-7-azaspiro[3.5]nonan-2-yl)piperazin-1-yl)phenyl)amino)-9H-purin-9-yl)cyclobutyl)-2-phenylacetamide]
Enzyme degradation CDK2 (% remaining) @ 0.1 μM (CDK2): 30%
Enzyme degradation CDK2 (% remaining) @ 1 μM (CDK2): 40%
Enzyme degradation CDK2 (% remaining) @ 10 μM (CDK2): 40%
Enzyme degradation CDK9 (% remaining) @ 0.1 μM (CDK9): 20%
Enzyme degradation CDK9 (% remaining) @ 1 μM (CDK9): 10%
Enzyme degradation CDK9 (% remaining) @ 10 μM (CDK9): 10%

COc1ccc(C(=O)N2CC(N3CCC4(CC3)CC(N3CCN(c5ccc(Nc6ncnc7c6ncn7[C@H]6C[C@@H](NC(=O)Cc7ccccc7)C6)cc5)CC3)C4)C2)cc1N1CCC(=O)NC1=O [Compound 272, N-((1s,3s)-3-(6-((4-(4-(7-(1-(3-(2,4-dioxotetrahydropyrimidin-1(2H)-yl)-4-methoxybenzoyl)azetidin-3-yl)-7-azaspiro[3.5]nonan-2-yl)piperazin-1-yl)phenyl)amino)-9H-purin-9-yl)cyclobutyl)-2-phenylacetamide]
Enzyme degradation CDK2 (% remaining) @ 0.1 μM (CDK2): 40/40/40%
Enzyme degradation CDK2 (% remaining) @ 1 μM (CDK2): 40/40/40%
Enzyme degradation CDK2 (% remaining) @ 10 μM (CDK2): 40/40/40%
Enzyme degradation CDK9 (% remaining) @ 0.1 μM (CDK9): 30%
Enzyme degradation CDK9 (% remaining) @ 1 μM (CDK9): 20%
Enzyme degradation CDK9 (% remaining) @ 10 μM (CDK9): 20%

O=C1CC[C@@H](c2ccc(OCC(=O)N3CC(N4CCC5(CC4)CC(N4CCN(c6ccc(Nc7ncnc8c7ncn8[C@H]7C[C@@H](NC(=O)Cc8ccccc8)C7)cc6)CC4)C5)C3)cc2)C(=O)N1 [Compound 273, N-((1s,3s)-3-(6-((4-(4-(7-(1-(2-(4-(2,6-dioxopiperidin-3-yl)phenoxy)acetyl)azetidin-3-yl)-7-azaspiro[3.5]nonan-2-yl)piperazin-1-yl)phenyl)amino)-9H-purin-9-yl)cyclobutyl)-2-phenylacetamide]
Enzyme degradation CDK2 (% remaining) @ 0.1 μM (CDK2): 100%
Enzyme degradation CDK2 (% remaining) @ 1 μM (CDK2): 70%
Enzyme degradation CDK2 (% remaining) @ 10 μM (CDK2): 50%
Enzyme degradation CDK9 (% remaining) @ 0.1 μM (CDK9): 20%
Enzyme degradation CDK9 (% remaining) @ 1 μM (CDK9): 10%
Enzyme degradation CDK9 (% remaining) @ 10 μM (CDK9): 10%

O=C1CC[C@@H](c2cccc(OCC(=O)N3CC(N4CCC5(CC4)CC(N4CCN(c6ccc(Nc7ncnc8c7ncn8[C@H]7C[C@@H](NC(=O)Cc8ccccc8)C7)cc6)CC4)C5)C3)c2)C(=O)N1 [Compound 274, N-((1s,3s)-3-(6-((4-(4-(7-(1-(2-(3-(2,6-dioxopiperidin-3-yl)phenoxy)acetyl)azetidin-3-yl)-7-azaspiro[3.5]nonan-2-yl)piperazin-1-yl)phenyl)amino)-9H-purin-9-yl)cyclobutyl)-2-phenylacetamide]
Enzyme degradation CDK2 (% remaining) @ 0.1 μM (CDK2): 30%
Enzyme degradation CDK2 (% remaining) @ 1 μM (CDK2): 20%
Enzyme degradation CDK2 (% remaining) @ 10 μM (CDK2): 20%
Enzyme degradation CDK9 (% remaining) @ 0.1 μM (CDK9): 30/30/30%
Enzyme degradation CDK9 (% remaining) @ 1 μM (CDK9): 30/30/30%
Enzyme degradation CDK9 (% remaining) @ 10 μM (CDK9): 30/30/30%

O=C1CCC(c2ccc(OCC(=O)N3CC(CN4CCC5(CC4)CC(N4CCN(c6ccc(Nc7ncnc8c7ncn8[C@H]7C[C@@H](NC(=O)Cc8ccccc8)C7)cc6)CC4)C5)C3)cc2)C(=O)N1 (stereo partly drawn) [Compound 275, N-((1s,3s)-3-(6-((4-(4-(7-((1-(2-(4-(2,6-dioxopiperidin-3-yl)phenoxy)acetyl)azetidin-3-yl)methyl)-7-azaspiro[3.5]nonan-2-yl)piperazin-1-yl)phenyl)amino)-9H-purin-9-yl)cyclobutyl)-2-phenylacetamide]
Enzyme degradation CDK2 (% remaining) @ 0.1 μM (CDK2): 80%
Enzyme degradation CDK2 (% remaining) @ 1 μM (CDK2): 60%
Enzyme degradation CDK2 (% remaining) @ 10 μM (CDK2): 60%
Enzyme degradation CDK9 (% remaining) @ 0.1 μM (CDK9): 70%
Enzyme degradation CDK9 (% remaining) @ 1 μM (CDK9): 30%
Enzyme degradation CDK9 (% remaining) @ 10 μM (CDK9): 0%
